From US11306313B2, “Peptide, complex of peptide and siRNA, and methods of use thereof” (Positec Power Tools (Suzhou) Co., Ltd, priority 2013, dated 2022)
Where a SMILES comes first, the peptide text is derived from it.

Assays:
[1] = Cytotoxicity test (CCK8 cell viability); assay type: cell-based; settings: CHO-K1 cells, FIG. 5, molar ratio 20/1 and 40/1, siRNA 50 nM, read-out: cell survival rate
Description: CHO-K1 cells were seeded at 5,000-8,000 cells/well in clear, flat-bottomed, 96-well plates in triplicate and grown for 24 h at 37° C. with 5% CO2. The complexes or control samples were added to the cells in 150 μl of standard media and the cells were incubated for 48 h. The CCK8 assay was used to determine cell viability, according to the manufacturer's instructions. Briefly, […] of CCK8 stock was added to each well and incubated for 2 h at 37° C. in 5% CO2. Then, the cultures were removed from the incubator and the absorbance at 570 nm was read on a plate reader (FLUOstar OPTIMA, BMG, Germany). The background absorbance of the multiwell plates at 690 nm was determined and subtracted from the 570 nm measurement. The results obtained from triplicate wells were averaged and normalized using the value obtained for non-treated cells.

Cell absorption test = assay type: cell-based
[2] = reported in WO2013/075244 A1; cited from earlier work
[3] = reported in WO2013/075244 A1; cited from earlier work; remark: listed apart in the source

Which viability at 48 h [1] does the source give for `CC(=O)NCC(=O)N[C@@H](CC(C)C)C(=O)N[C@@H](Cc1c[nH]c2ccccc12)C(=O)N[C@@H](Cc1c[nH]cn1)C(=O)N[C@@H](C)C(=O)N[C@@H](Cc1c[nH]c2ccccc12)C(=O)N[C@@H](CC(C)C)C(=O)N[C@@H](Cc1c[nH]c2ccccc12)C(=O)N[C@@H](Cc1c[nH]cn1)C(=O)N[C@@H](C)C(=O)N[C@@H](Cc1ccccc1)C(=O)N[C@@H](CC(C)C)C(=O)N[C@@H](C)C(=O)N[C@@H](CO)C(=O)N[C@@H](Cc1c[nH]cn1)C(=O)N[C@@H](CCCNC(=N)N)C(=O)N[C@@H](CC(C)C)C(=O)N[C@@H](CC(C)C)C(=O)N[C@@H](CCCNC(=N)N)C(=O)N[C@@H](CC(C)C)C(=O)N[C@@H](CC(C)C)C(=O)N[C@@H](CCCNC(=N)N)C(N)=O` [GL5, CH3CONH-GLWHAWLWHAFLASHR LLRLLR-CONH2] (Ac-GLWHAWLWHAFLASHRLLRLLR-NH2) here?
Its viability at 48 h is about 105%.

For “CH3(CH2)16CONH-HHHHHHHHHHHHHHHHRRRRRRRR-CONH2 (stearyl-HHHHHHHHHHHHHHHHRRRRRRRR-NH2) [STR-HR]”, which “absorption efficiency compared with lipid 2000” value (Cell absorption test) is on record?
The value was “higher than that of lipid 2000”.

Which “siRNA delivery (uptake) efficiency” value [2] does the source give for “GLWRAWLWKAFLASNWRRLLRLLR (Synthetic sequence - peptide GL1)” here?
The value was “about 95%”.

And the gene silencing efficiency [3]?
Its gene silencing efficiency is “about 50%”.
